{"source": "patent US10596127B2", "about": "“Composition for reducing the frequency of urination, method of making and use thereof” (WELLESLEY PHARMACEUTICALS, LLC, priority 2013, dated 2020)", "key": {"[1]": {"tested_on": "PGE2 secretion by normal human bladder smooth muscle cells", "assay": "PGE2 ELISA of normal human bladder smooth muscle cell supernatants", "type": "cell-based", "description": "Prostaglandin E2 responses were analyzed by a sequential competitive ELISA (R&D Systems). More specifically, culture supernatants or PGE2 standards were added to the wells of a 96-well polystyrene microplate coated with a goat anti-mouse polyclonal antibody. After one hour incubation on a microplate shaker, an HRP-conjugated PGE2 was added and plates incubated for an additional two hours at room temperature. The plates were then washed and HRP substrate solution added to each well. The color was allowed to develop for 30 min and the reaction stopped by addition sulfuric acid before reading the plate at 450 nm with wavelength correction at 570 nm. Results are expressed as mean pg/ml of PGE2.\n(§1) Normal human bladder smooth muscle cells were isolated by enzymatic digestion from macroscopically normal pieces of human bladder. Cells were expended in vitro by culture at 37° C. in a 5% CO2 atmosphere in RPMI 1640 supplemented with 10% fetal bovine serum, 15 mM HEPES, 2 mM L-glutamine, 100 U/ml penicillin, and […] of streptomycin and passage once a week by treatment with trypsin to detach cells followed by reseeding in a new culture flask. The first week of culture, the culture medium was supplemented with 0.5 ng/ml epidermal growth factor, 2 ng/ml fibroblast growth factor, and 5 μg/ml insulin.\n(§2) […] When no other effectors were added to the cells, 50 μl of RPMI 1640 without fetal bovine serum were added to the wells to adjust the final volume to 200 μl.\n(§3) After 24 hours of culture, 150 μl of culture supernatants were collected, spun down for 2 min at 8,000 rpm at 4° C. to remove cells and debris and stored at −70° C. for analysis of Prostaglandin E2 (PGE2) responses by ELISA. Cells were fixed, permeabilized and blocked for detection of COX2 using a fluorogenic substrate. In selected experiment cells were stimulated 12 hours in vitro for analysis of COX2, PGE2 and cytokine responses.\n(§4) COX2 and PGE2 responses were analyzed as described in Example 3. Cytokine responses were analyzed as described in Example 2."}, "[2]": {"tested_on": "expression of co-stimulatory molecules by Raw 264 macrophage cells", "assay": "Flow cytometry of co-stimulatory molecules CD40 and CD80 on macrophages treated with analgesic, with or without LPS", "type": "cell-based, Murine", "details": "LPS 5 ng/ml alone, no analgesic; negative control 20.6", "description": "Murine RAW264.7 or J774 macrophage cells (obtained from ATCC) were used in this study. Cells were maintained in a culture medium containing RPMI 1640 supplemented with 10% fetal bovine serum (FBS), 15 mM HEPES, 2 mM L-glutamine, 100 U/ml penicillin, and 100 μg/ml of streptomycin. Cells were cultured at 37° C. in a 5% CO2 atmosphere and split (passages) once a week.\nRAW264.7 macrophage cells were seeded in 96-well plates at a cell density of 1.5×10^5 cells per well in 100 μl of the culture medium. […] Briefly, the analgesics were dissolved in FBS-free culture medium (i.e., RPMI 1640 supplemented with 15 mM HEPES, 2 mM L-glutamine, 100 U/ml penicillin, and 100 μg/ml of streptomycin), and diluted to desired concentrations by serial dilution with the same medium. For cells treated with analgesic in the absence of LPS, 50 μl of analgesic solution and 50 μl of FBS-free culture medium were added to each well. For cells treated with analgesic in the presence of LPS, 50 μl of analgesic solution and 50 μl of LPS (from Salmonella typhimurium) in FBS-free culture medium were added to each well. All conditions were tested in duplicates.\nAfter 24 or 48 hours of culture, 150 μl of culture supernatants were collected, spun down for 2 min at 8,000 rpm at 4° C. to remove cells and debris and stored at −70° C. for analysis of cytokine responses by ELISA. The cells were collected and washed by centrifugation (5 min at 1,500 rpm at 4° C.) in 500 μl of Phosphate buffer (PBS). Half of the cells were then snap frozen in liquid nitrogen and stored at −70° C. The remaining cells were stained with fluorescent monoclonal antibodies and analyzed by flow cytometry.\nFor flow cytometry analysis, macrophages were diluted in 100 μl of FACS buffer (phosphate buffered saline (PBS) with 2% bovine serum albumin (BSA) and 0.01% NaN3) and stained 30 min at 4° C. by addition of FITC-conjugated anti-CD40, PE-conjugated anti-CD80, PE-conjugated anti-CD86 antibody, anti MHC class II (I-A^d) PE (BD Bioscience). Cells were then washed by centrifugation (5 min at 1,500 rpm at 4° C.) in 300 μl of FACS buffer. After a second wash, cells were re-suspended in 200 μl of FACS buffer and the percentage of cells expressing a given marker (single positive), or a combination of markers (double positive) were analyzed with the aid of an Accuri C6 flow cytometer (BD Biosciences)."}, "[3]": {"tested_on": "TNFα secretion by normal human bladder smooth muscle cells", "assay": "TNFα ELISA of normal human bladder smooth muscle cell supernatants", "type": "cell-based", "details": "no analgesic", "description": "(§5) Culture supernatants were subjected to cytokine-specific ELISA to determine IL-1β, IL-6 and TNF-α responses in cultures of macrophages treated with analgesic, LPS alone or a combination of LPS and analgesic. The assays were performed on Nunc MaxiSorp Immunoplates (Nunc) coated overnight with 100 μl of anti-mouse IL-6, TNF-α mAbs (BD Biosciences) or IL-1β mAb (R&D Systems) in 0.1 M sodium bicarbonate buffer (pH 9.5). After two washes with PBS (200 μl per well), 200 μl of PBS 3% BSA were added in each well (blocking) and the plates incubated for 2 hours at room temperature. Plates were washed again two times by addition of 200 μl per well, 100 μl of cytokine standards and serial dilutions of culture supernatants were added in duplicate and the plates were incubated overnight at 4° C. Finally, the plates were washed twice and incubated with 100 μl of secondary biotinylated anti-mouse IL-6, TNFα mAbs (BD Biosciences) or IL-1β (R&D Systems) followed by peroxidase-labelled goat anti-biotin mAb (Vector Laboratories). The colorimetric reaction was developed by the addition of 2,2′-azino-bis(3)-ethylbenzylthiazoline-6-sulfonic acid (ABTS) substrate and H2O2 (Sigma) and the absorbance measured at 415 nm with a Victor® V multilabel plate reader (PerkinElmer).\nas §1\n(§6) Bladder smooth muscle cells trypsinized and seeded in microculture plates at a cell density of 3×10^4 cells per well in 100 μl were treated with analgesic solutions (50 μl/well) either alone or together carbachol (10-Molar, 50 μl/well), as an example of non-inflammatory stimuli, or lipopolysaccharide (LPS) of Salmonella typhimurium (1 μg/ml, 50 μl/well), as an example of […] stimuli. When no other effectors were added to the cells, 50 μl of RPMI 1640 without fetal bovine serum were added to the wells to adjust the final volume to 200 μl.\nas §3, §4"}, "[4]": {"tested_on": "COX2 expression by normal human bladder smooth muscle cells", "assay": "Cell-based ELISA of total COX2 in normal human bladder smooth muscle cells", "description": "COX2 responses were analyzed by a Cell-Based ELISA using Human/mouse total COX2 immunoassay (R&D Systems), following the instructions of the manufacturer. Briefly, after cells fixation and permeabilization, a mouse anti-total COX2 and a rabbit anti-total GAPDH were added to the wells of the clear-bottom black 96-well cell culture microculture plates. After incubation and washes, an HRP-conjugated anti-mouse IgG and an AP-conjugated anti-rabbit IgG were added to the wells. Following another incubation and set of washes, the HRP- and AP-fluorogenic substrates were added. Finally, a Victor® V multilabel plate reader (PerkinElmer) was used to read the fluorescence emitted at 600 nm (COX2 fluorescence) and 450 nm (GAPDH fluorescence). Results are expressed as relative levels of total COX2 as determined by relative fluorescence unit (RFUs) and normalized to the housekeeping protein GAPDH.\nas §1, §2, §3, §4"}, "[5]": {"tested_on": "IL-6 secretion by normal human bladder smooth muscle cells", "assay": "IL-6 ELISA of normal human bladder smooth muscle cell supernatants", "type": "cell-based", "details": "stimulus alone, no analgesic (Carbachol 10^−3 M; LPS 10 μg/ml); unstimulated <5"}, "[6]": {"tested_on": "TNFα secretion by normal human bladder smooth muscle cells", "assay": "TNFα ELISA of normal human bladder smooth muscle cell supernatants", "type": "cell-based", "details": "stimulus alone, no analgesic (Carbachol 10^−3 M; LPS 10 μg/ml); unstimulated <5"}, "[7]": {"tested_on": "IL-6 secretion by normal human bladder smooth muscle cells", "assay": "IL-6 ELISA of normal human bladder smooth muscle cell supernatants", "type": "cell-based", "details": "no analgesic", "description": "as §5, §1, §6, §3, §4"}, "[8]": {"details": "stimulus alone, no analgesic (Carbachol 10^−3 M; LPS 10 μg/ml), unstimulated <20.5"}}}
{"substance": "lipopolysaccharide [LPS]", "values": [{"measurement": "PGE2 production in response to stimulus alone", "setting": "[1]; no analgesic", "value": "induced production of PGE2"}, {"measurement": "PGE2 levels (pg/ml) Subject 1", "setting": "[1]; [8]", "value": 1125, "unit": "pg/mL"}, {"measurement": "PGE2 levels (pg/ml) Subject 2", "setting": "[1]; [8]", "value": 998, "unit": "pg/mL"}, {"measurement": "% Positive CD40+CD80+", "setting": "[2]", "value": 77.8, "unit": "%"}, {"measurement": "TNFα responses to stimulus alone", "setting": "[3]", "value": "massive induction"}, {"measurement": "COX2 responses to stimulus alone", "setting": "[4]; no analgesic", "value": "higher levels of COX2 responses"}, {"measurement": "Total COX2 levels (Normalized RFUs) subject 2", "setting": "[4]; stimulus alone, no analgesic (Carbachol 10^−3 M; LPS 10 μg/ml), unstimulated 199", "value": 633, "unit": "Normalized RFUs"}, {"measurement": "Total COX2 levels (Normalized RFUs) subject 1", "setting": "[4]; stimulus alone, no analgesic (Carbachol 10^−3 M; LPS 10 μg/ml), unstimulated 230", "value": 672, "unit": "Normalized RFUs"}, {"measurement": "IL-6 (pg/ml) Subject 1", "setting": "[5]", "value": 4838, "unit": "pg/mL"}, {"measurement": "IL-6 (pg/ml) Subject 2", "setting": "[5]", "value": 4383, "unit": "pg/mL"}, {"measurement": "TNFα (pg/ml) Subject 1", "setting": "[6]", "value": 5725, "unit": "pg/mL"}, {"measurement": "TNFα (pg/ml) Subject 2", "setting": "[6]", "value": 4107, "unit": "pg/mL"}, {"measurement": "IL-6 responses to stimulus alone", "setting": "[7]", "value": "massive induction"}]}
